# Laboratory results taken from ChEMBL document CHEMBL1149462, “Total synthesis and biological evaluation of 22-hydroxyacuminatine” (J Med Chem, 2006).
# Tests used:
# P388CPT45 = experiment: Cytotoxicity against topoisomerase 1-deficient subclone P388/CPT45 murine leukemic cell line; type: functional, cell-based; conditions: Mus musculus
# P388 = experiment: Cytotoxicity against P388 murine leukemic cell line; type: functional, cell-based; conditions: Mus musculus
compound,measurement,setting,value
O=c1c2cccc(CO)c2cc2n1Cc1cc3ccccc3nc1-2,IC50,P388CPT45,43 µM
same,IC50,P388,35.5 µM
